Data on twelve compounds can be found in US5574039A, “Antiproliferative compounds having nitrogen-containing tricyclic ring systems and phenyl substituents” (Agouron Pharmaceuticals, Inc., priority 1994, dated 1996).

Where two headings read alike, the source gives them in different places.

For assay [1], the target named is Escherichia Coli TS ("ETS") (Escherichia coli, UniProt P0A884). The assay can be described thus: Thymidylate synthase inhibition constant Ki, Escherichia Coli TS. In kind it is biochemical. The method, then: (§1) Thymidylate synthase inhibition constants Ki were determined by the following method. All assays were run at 25° C. and initiated by the addition of three different types of thymidylate synthase ("TS"): (1) Escherichia Coli TS ("ETS"); (2) Candida TS ("CTS"), a fungus; and (3) human TS ("HTS").
(§2) All reaction mixtures contained 50 mM Tris at pH 7.8 (the final pH of the reaction was; 7.6), 10 mM DTT (dithiothreitol), 1 mM EDTA (ethylenediaminetetraacetic acid), 25 mM MgCl2, 15 mM H2 CO (formaldehyde) and 25 microM dUMP. When human TS was assayed, 100 micrograms/ml of BSA (bovine serum albumin) was present in the reactions. The range of THF (Tetrahydrofolate) was 5 to 150 microM (eight concentrations: 5, 6.6, 10, 13, 16, 25, 50 and 150 microM). A standard curve in the absence of inhibitor was run with each experiment. […] Charcoal was used to remove unreacted dUMP from the tritium release reaction mixtures, and the resultant water was counted to determine the extent of reaction.

A further assay deals with human TS ("HTS") (Homo sapiens, UniProt P04818). As to the kind of experiment: biochemical. How it is done:
as §1
All reaction mixtures contained 50 mM Tris at pH 7.8 (the final pH of the reaction was; 7.6), 10 mM DTT (dithiothreitol), 1 mM EDTA (ethylenediaminetetraacetic acid), 25 mM MgCl2, 15 mM H2 CO (formaldehyde) and 25 microM dUMP. When human TS was assayed, 100 micrograms/ml of BSA (bovine serum albumin) was present in the reactions. […] A standard curve in the absence of inhibitor was run with each experiment. […] Charcoal was used to remove unreacted dUMP from the tritium release reaction mixtures, and the resultant water was counted to determine the extent of reaction.

Assay [2] relates to thymidine kinase deficient human adenocarcinoma line (GC3 /M TK^-). As to the kind of experiment: cells. Format: cell-based. The following applies: GC3/MTK-, 120 h, read-out: IC50 GC3-M.
The test system of assay [3] is L1210 murine leukemia (ATCC CCL 219). The assay can be described thus: cells. Format: cell-based. To be noted: Mus musculus, L1210, 72 h, read-out: IC50 L1210.
The next assay deals with Candida TS ("CTS") (Candida albicans, UniProt P12461). As to the kind of experiment: Thymidylate synthase inhibition constant Ki, Candida TS. Format: biochemical. The method, then: as §1, §2
Assay [4] has as its system CCRF-CEM, a human lymphoblastic leukemia line of T-cell origin (ATCC CCL 119). The assay can be described thus: cells. Format: cell-based. The following applies: 120 h, read-out: IC50 (CRFCEM).

Escherichia Coli TS ("ETS"), sequence (P0A884 whole entry): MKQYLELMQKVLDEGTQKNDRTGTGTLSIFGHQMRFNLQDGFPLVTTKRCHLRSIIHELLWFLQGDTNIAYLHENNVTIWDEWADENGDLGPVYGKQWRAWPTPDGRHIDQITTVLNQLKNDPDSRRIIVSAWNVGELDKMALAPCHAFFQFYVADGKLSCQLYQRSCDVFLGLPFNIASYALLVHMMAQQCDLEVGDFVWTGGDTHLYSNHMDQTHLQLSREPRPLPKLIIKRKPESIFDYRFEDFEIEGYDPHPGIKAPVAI
human TS ("HTS"), sequence (P04818 whole entry): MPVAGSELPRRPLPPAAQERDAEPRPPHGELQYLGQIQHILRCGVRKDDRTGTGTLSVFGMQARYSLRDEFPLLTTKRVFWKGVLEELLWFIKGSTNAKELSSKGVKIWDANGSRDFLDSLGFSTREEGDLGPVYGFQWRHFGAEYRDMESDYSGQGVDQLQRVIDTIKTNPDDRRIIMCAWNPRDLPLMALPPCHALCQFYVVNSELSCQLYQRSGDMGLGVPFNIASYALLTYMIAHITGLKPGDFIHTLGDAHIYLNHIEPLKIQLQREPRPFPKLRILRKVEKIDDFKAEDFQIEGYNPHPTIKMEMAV
Candida TS ("CTS"), sequence (P12461 whole entry): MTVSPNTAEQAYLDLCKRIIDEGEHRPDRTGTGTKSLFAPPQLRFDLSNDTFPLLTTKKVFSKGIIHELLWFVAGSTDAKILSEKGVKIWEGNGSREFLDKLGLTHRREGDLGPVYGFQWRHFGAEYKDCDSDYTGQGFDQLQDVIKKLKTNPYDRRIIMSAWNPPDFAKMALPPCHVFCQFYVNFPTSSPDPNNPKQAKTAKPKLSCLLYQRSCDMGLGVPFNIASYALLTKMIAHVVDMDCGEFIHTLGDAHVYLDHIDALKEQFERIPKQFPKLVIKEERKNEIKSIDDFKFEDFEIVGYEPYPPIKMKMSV

As for `CCN(Cc1ccc(S(=O)(=O)N2CCNCC2)cc1)c1ccc2c3c(cccc13)C(=S)N2` [Compound 6, N-^6 -Ethyl-N^6 [(4-N,N-piperazinyl)sulfamoyl]benzyl-6-aminobenz[cd]indol-2(1H)-thione], the Ki came out at 50 ± 9 µM in assay [1], 3.4 ± 0.4 µM at human TS ("HTS") and 23 ± 15 µM on Candida TS ("CTS"). In addition, the IC50 in assay [2] is more than 5 µM; in assay [3], 2.1 µM; in assay [4], 3.5 µM.
As to `CCN(Cc1ccc(S(=O)(=O)c2ccccc2)cc1)c1ccc2c3c(cccc13)C(=O)N2` [Compound 8, N-[4-(phenylsulfonyl)benzyl]-N-ethyl-6-aminobenz[cd]indol-2(1H)-one], the Ki in assay [1] was more than 1 µM; on human TS ("HTS"), 1.2 ± 0.4 µM; at Candida TS ("CTS"), more than 1 µM. Also, the IC50 was more than 3.33 µM in assay [2], 3.05 µM in assay [3] and more than 3.33 µM in assay [4].
Regarding `O=C1Nc2ccc(N(CCO)Cc3ccc(S(=O)(=O)N4CCNCC4)cc3)c3cccc1c23` [Compound 16, N-[4-(N,N-Piperazinylsulfamoyl)benzyl]-N-hydroxyethyl-6-aminobenz[cd]indol-2(1H)-one], the Ki is 14 ± 7 µM in assay [1], 0.87 ± 0.19 µM on human TS ("HTS") and 11 ± 7 µM on Candida TS ("CTS"). In addition, the IC50 is more than 50 µM in assay [2], 50 µM in assay [3] and 31 µM in assay [4].
On to `CCCN(Cc1ccc(S(=O)(=O)N2CCNCC2)cc1)c1ccc2c3c(cccc13)C(=O)N2` [Compound 19, N-[4-(N,N-Piperazinylsulfamoyl)benzyl]-N-propyl-6-aminobenz[cd]indol-2(1H)-one], for which the Ki was more than 20 µM in assay [1], 12 ± 4 µM at human TS ("HTS") and more than 10 µM on Candida TS ("CTS"). For the same compound, the IC50 worked out at 5.4 µM in assay [2], 2.9 µM in assay [3] and 3.1 µM in assay [4].
Take `CC(C)N(Cc1ccc(S(=O)(=O)N2CCNCC2)cc1)c1ccc2c3c(cccc13)C(=O)N2` [Compound 22, N-[4-(N,N-piperazinylsulfamoyl)benzyl]-N-isopropyl-6-aminobenz[cd]indol-2(1H)-one]: the Ki was found to be 23 ± 7 µM in assay [1], 4.9 ± 0.7 µM at human TS ("HTS") and 43 ± 9 µM at Candida TS ("CTS"). In addition, the IC50 was 5.9 µM in assay [2], 3.9 µM in assay [3] and 6.8 µM in assay [4].
With `CSCN(Cc1ccc(S(=O)(=O)c2ccccc2)cc1)c1ccc2c3c(cccc13)C(=O)N2` [Compound 24, N-[4-(Phenylsulfonyl)benzyl]-N-methylthiomethyl-6-aminobenz[cd]indol-2(1H)-one], the Ki is more than 1 µM in assay [1], 3.9 ± 1.7 µM on human TS ("HTS") and more than 1 µM on Candida TS ("CTS"). Besides, the IC50 in assay [2] is more than 10 µM; in assay [3], 2.1 µM; in assay [4] it was 2.8 µM.
In the case of `CN(Cc1ccc(S(=O)(=O)c2ccccc2)cc1)c1ccc2c3c(cccc13)C(=O)N2` [Compound 29], the IC50 in assay [2] is more than 5 µM.
For `CN(Cc1ccc(CO)c2ccccc12)c1ccc2c3c(cccc13)C(=O)N2` [Compound 31, N-[4-Hydroxymethyl-1-naphthobenzyl]-N-methyl-6-aminobenz[cd]indol-2(1H)-one], the Ki in assay [1] (read-out: Ki ETS, 25° C., against 5,10-methylene-tetrahydrofolate, 25 microM dUMP) is more than 2 µM; at human TS ("HTS"), 10 ± 1 µM; at Candida TS ("CTS") (read-out: Ki CTS, 25° C., against 5,10-methylene-tetrahydrofolate, 25 microM dUMP), more than 2 µM. Moreover, the 50% inhibitory concentration (IC50) in assay [2] was 4 µM; in assay [3], 0.8 µM; in assay [4], 3 µM.
Consider `CCN(Cc1ccc(S(=O)(=O)c2ccccc2)cc1)c1ccc2c3c(cccc13)C(N)=N2` [Compound 34], for which the Ki in assay [1] came out at 10 ± 6 µM; at human TS ("HTS") it was 0.075 ± 0.037 µM; at Candida TS ("CTS"), 0.38 ± 0.11 µM. The values for the IC50 in assay [2], in assay [3] and in assay [4] were 3 µM, 0.7 µM and 1.25 µM, respectively.
On to `O=C1Nc2ccc(N(CCCO)Cc3ccc(S(=O)(=O)N4CCNCC4)cc3)c3cccc1c23` [Compound 40, N-[4-(N,N-Piperazinylsulfamoyl)benzyl]-N-hydroxypropyl-6-aminobenz[cd]indol-2-(1H)-one], for which the Ki in assay [1] is more than 10 µM; on human TS ("HTS") it was 11 ± 5 µM; at Candida TS ("CTS"), more than 10 µM. Moreover, the IC50 worked out at 30 µM in assay [2], 21.5 µM in assay [3] and 15 µM in assay [4].
As for `CCN(Cc1ccc(S(=O)(=O)c2ccccc2)cc1)c1ccc2c3c(cccc13)CN2` [Compound 41, N-[4-(phenylsulfonyl)benzyl]-N-ethyl-6-amino-dihydrobenz[cd]indole], the results for the Ki (in assay [1]; at human TS ("HTS"); at Candida TS ("CTS")) were more than 5 µM, 12 ± 3 µM and more than 10 µM, respectively.
Turning to `CN(Cc1ccc2cc(CO)ccc2c1)c1ccc2c3c(cccc13)C(=O)N2` [Compound 47, N-(6-Hydroxymethyl-2-naphthobenzyl)-N-methyl-6-aminobenz[cd]indol-2(1H)-one], the Ki in assay [1] was more than 10 µM; at human TS ("HTS"), 20 ± 10 µM; on Candida TS ("CTS"), more than 10 µM. In addition, the IC50 in assay [2] was more than 4 µM; in assay [3] it was 1.7 µM; in assay [4] it was more than 4 µM.

As usually defined, the Ki is a measure of affinity in units of concentration, obtained from inhibition or displacement. For orientation: IC50 means the midpoint of a concentration-inhibition curve.
